Earlier results as cited in patent US10913844B2, “Plasticized thermoset resin, and associated cured resin, method of curing, and article comprising cured resin” (The University of Massachusetts, priority 2016, dated 2021).

Settings: solvent furfural

- solubility of HMTA in furfural: less than two
SMILES: C1N2CN3CN1CN(C2)C3 [HMTA, hexamethylenetetramine]
